{
  "source": "patent US20230201308A1",
  "about": "“TREATMENT OF CORONAVIRUS INFECTION WITH […]” (Eiger Biopharmaceuticals, Inc., priority 2020, published 2023)",
  "origin": "cited, not measured here",
  "tested_on": "SARS-CoV-2",
  "conditions": "BLAZE trial; placebo group 15%; cited from earlier work",
  "data": [
    {"substance": "bamlanivimab", "values": [
      {"measurement": "hospitalization in the treatment group", "value": "placebo group to 4% in the treatment group. Despite the more potent antiviral effect"}
    ]}
  ]
}
